{"source": "paper PMC10541198", "about": "“Specific quinone reductase 2 inhibitors reduce metabolic burden and reverse Alzheimer’s disease phenotype in mice” (The Journal of Clinical Investigation, 2023)", "key": {"[1]": {"assay": "Drinking rate during chronic ingestion", "format": "in vivo, mouse", "parameters": "Sup. Fig. 5-2B, drinking rate: unit: ml/g/day", "experimental": "Supplementary Figure 6. Chronic Drinking of 50 mg/kg YB -537 for of 1 Month Causes no Changes\nin General Mouse Physiology or Behavior but Improves Nesting Behavior Over Time.\n(A) Weight of male and female, 8–9- month-old 5xFAD mice over the course of 25 days while consuming\n(B) Drinking rate of water or YB-537 in the cages of the 5xFAD mice. […]"}, "GFAP": {"system": "GFAP", "assay": "IHC of GFAP (astrocyte activation) in 5xFAD brain sections", "format": "in vivo, mouse", "settings": "for Figure 9E, IHC signal: individual animals", "excerpt": "Following the behavioral experiments, we assessed brain pathologies associated with AD present in the 5xFAD mice ([37]). Therefore, 5 days following the last behavioral experiment, and 1 month after the start of YB-537 consumption, mice were sacrificed, and coronal brain sections were used for IHC. Since the CA1 region of the hippocampus is affected during AD pathogenesis ([37]), and this brain region is involved in the behavioral paradigms used here, we acquired images of CA1. This was done with an Olympus IX83 confocal microscope using the same settings, antibodies, and exposures in all mice. Images were analyzed using Imaris (Bitplane; see methods). For each mouse, 3 coronal sections were used per antibody. In each section, the same region of CA1 was acquired, using the same image frame size and resolution, at all possible depths of the section — using a Z-stack of the whole section — to allow measurement of the fluorescent antibody marker volume, which was normalized to the brain volume from which it was taken. First, we measured oxidative stress, as indicated by 4-HNE ([38]) (Abcam, ab48506).\nPerfused and fixed brain slices were blocked with 10% normal donkey serum (DNS) and 0.2% triton (Sigma-Aldrich) in PBS. Antibodies, including 4-HNE (AbCam, ab48506), Iba1 (AbCam, ab5076), AT-8 (Thermo, MN1020), Amyloid β (AbCam, ab201060), diluted in PBS with 10% DNS, were incubated at 4°C overnight. Secondary antibodies including donkey-anti-goat Alexa Fluor 568 (AbCam, ab175704), donkey-anti-mouse Cy 5 (Jackson Immuno Research, 715-175-151), and donkey-anti-rabbit DyLight 488 (AbCam, ab98488) all diluted 1:500 in PBS with 1% BSA, were applied to the slices at RT for 2 hours the next day. Slices were mounted onto glass slides using DAPI containing Vectashield (H-1200). Images were taken using a confocal microscope (Olympus IX83). Three slices were used per mouse per antibody. Tiling images of the dorsal CA1 and cortex (Bregma: –1.58mm to –2.30mm) were taken using ×20 objective, acquiring a Z-stack of the whole section. Analysis of the images was done blind by an experimenter unaware of the experimental conditions or details, using Imaris (Bitplane) software. A surface reconstruction module was used to extract the data as volumes of the used markers (4-HNE, phospho-tau, amyloid β, GFAP, and Iba1). Marker volume and intensity were normalized to the corresponding brain volume. The normalized value was averaged for each triplicate and presented here. […]\nBrains were then briefly removed and placed in chilled, 4% PFA for 48 h, f oll owe d by immersion in 30% sucrose in 0.1 M PBS for a furt her 48 h. Bra i ns wer e t h e n stored at -80°C, until t he y were sliced into 40µm coronal sections usinga Lei ca CM 1950cryostat. Sli ces were then washed x3 in PBS and bl oc ke d for 1 h at RT using 10% normal donkey serum (DNS) and 0.2% triton (Sigma-Aldrich) in PBS. Antibodies, including 4- HNE (1:500, AbCam, ab48506), Iba1 (1:2,000, AbCam, ab5076), GFAP (Abcam, ab53554), phospho- tau (1:1,000, Thermo, MN1020) and amyloid β (1:1,000, AbCam, ab201060) diluted in PBS with 10% DNS were incubated at 4°C overnight. The next day, the slices were washed x3 times in PBS, and secondary antibodies including donkey anti goat A l e x a Fluor 568 (AbCam, ab175704), donkey anti-mouse Cy 5 (Jackson Immuno Research, 715- 175- 151) and donkey anti-rabbit DyLight 488 (AbCam, ab98488) all diluted 1:500 in PBS with 1% BSA, were applied to the slices at RT for 2 h. Following the incubation, the slices were washed x3 times in PBS, mounted onto gl ass slides, were uniformly covered in DAPI containing Vectashield (H-1200) and coverslips were a dde d. […]"}}, "note": "“And” between values parts separate entries of the source, which are not always exact repeats. Identical values can stand only once.", "data": [{"smiles": "Cc1ccc(-c2cn3cccc(C)c3n2)cc1S(=O)(=O)N1CCNCC1", "note": "[YB-537]", "values": [{"measurement": "average drinking rate", "setting": "[1]; 5xFAD females", "result": "0.170 ± 0.011", "unit": "mL/g/day"}, {"measurement": "average drinking rate", "setting": "[1]; 5xFAD males", "result": "0.170 ± 0.035", "unit": "mL/g/day"}, {"measurement": "Sup. Fig. 5-2B, drinking rate", "setting": "[1]; Female", "result": "0.159 and 0.182"}, {"measurement": "Sup. Fig. 5-2B, drinking rate", "setting": "[1]; Male", "result": "0.207 and 0.135"}, {"measurement": "GFAP normalized volume (individual mice)", "setting": "GFAP; CA1, 5xFAD 1 month, Females", "result": "0.0219 and 0.0268 and 0.0382 and 0.0442 and 0.0260 and 0.0233 and 0.0143"}, {"measurement": "GFAP vs vehicle", "setting": "GFAP; CA1, 5xFAD 1 month, Females", "result": "unchanged"}, {"measurement": "GFAP normalized volume (individual mice)", "setting": "GFAP; CA1, 5xFAD 1 month, Males", "result": "0.0303 and 0.0430 and 0.0365 and 0.0251 and 0.0258 and 0.0274 and 0.0223 and 0.0292 and 0.0263"}, {"measurement": "GFAP vs vehicle", "setting": "GFAP; CA1, 5xFAD 1 month, Males", "result": "unchanged"}, {"measurement": "GFAP normalized volume (individual mice)", "setting": "GFAP; CA1, 5xFAD 1 month, Males + Females", "result": "0.0303 and 0.0430 and 0.0365 and 0.0251 and 0.0258 and 0.0442 and 0.0260 and 0.0233 and 0.0143 and 0.0219 and 0.0268 and 0.0382 and 0.0274 and 0.0223 and 0.0292 and 0.0263"}, {"measurement": "GFAP vs vehicle", "setting": "GFAP; CA1, 5xFAD 1 month, total population", "result": "unchanged"}, {"measurement": "Figure 9E, IHC signal", "setting": "GFAP; Cortex", "result": "0.0026 and 0.0035 and 0.0044 and 0.0272 and 0.0046 and 0.0194 and 0.0258 and 0.0029 and 0.0033"}, {"measurement": "Figure 9E, IHC signal", "setting": "GFAP; Hippocampus", "result": "0.0259 and 0.0223 and 0.0094 and 0.0129 and 0.0279 and 0.0329 and 0.0343 and 0.0281 and 0.0220"}, {"measurement": "GFAP vs vehicle", "setting": "GFAP; cortex, 5xFAD 1 month, females", "result": "not significantly reduced"}, {"measurement": "GFAP vs vehicle", "setting": "GFAP; cortex, 5xFAD 1 month, males", "result": "significantly reduced"}, {"measurement": "GFAP vs vehicle", "setting": "GFAP; cortex, 5xFAD 1 month, total population", "result": "significantly reduced"}]}]}
